{"source": "patent US11135200B2", "about": "“Antimicrobial drug synthesis and therapeutic compositions” (priority 2014, dated 2021)", "key": {"prothrombin time": {"test_system": "prothrombin time", "experiment": "Effect on prothrombin time", "conditions": "relative to the Ornidazole racemic mixture"}, "[1]": {"experiment": "Pharmacokinetics after administration of rac-ornidazole in a formulation", "assay_type": "in vivo, human", "conditions": "for AUC of the component compared with rac-ornidazole / T1/2 of the component compared with rac-ornidazole: after a single administration of rac-ornidazole"}}, "note": "Read-outs that look alike come from different tables or passages of the source.", "data": [{"smiles": "Cc1ncc([N+](=O)[O-])n1C[C@@H](O)CCl", "note": "[(R)-ornidazole]", "values": [{"measurement": "effect on prothrombin time", "setting": "prothrombin time", "value": "diminished effect on prothrombin time"}, {"measurement": "AUC of the component compared with rac-ornidazole", "setting": "[1]", "value": "similar"}, {"measurement": "T1/2 of the component compared with rac-ornidazole", "setting": "[1]", "value": "similar"}]}, {"smiles": "Cc1ncc([N+](=O)[O-])n1C[C@H](O)CCl", "note": "[(S)-ornidazole]", "values": [{"measurement": "effect on prothrombin time", "setting": "prothrombin time", "value": "diminished effect on prothrombin time"}, {"measurement": "AUC of the component compared with rac-ornidazole", "setting": "[1]", "value": "similar"}, {"measurement": "T1/2 of the component compared with rac-ornidazole", "setting": "[1]", "value": "similar"}]}, {"smiles": "Cc1ncc([N+](=O)[O-])n1CC(O)CCl", "note": "(racemic) [(rac)-ornidazole, 1-chloro-3-(2-methyl-5-nitro-1H-imidazol-1-yl)propan-2-ol, reference compound]", "values": [{"measurement": "half-life", "setting": "[1]; human, in vivo, after a single administration of rac-ornidazole in a formulation, read-out: elimination half-life (T1/2)", "value": "14 to 18", "unit": "h"}, {"measurement": "Tmax", "setting": "[1]; human, in vivo, after administration of rac-Ornidazole in a formulation", "value": "2 to 4", "unit": "h"}, {"measurement": "half-life", "setting": "[1]; human, in vivo, after oral administration, read-out: terminal elimination half-life", "value": "14 to 18", "unit": "h"}, {"measurement": "Cmax", "setting": "[1]; human, in vivo, after single administration of rac-ornidazole in a formulation", "value": "9000 to 31500", "unit": "ng/mL"}]}]}
